Laboratory results from patent US20050130134A1, “Means and methods for monitoring non-nucleoside reverse transcriptase inhibitor antiretroviral therapy and guiding therapeutic decisions in the treatment HIV-AIDS” (ViroLogic, Inc., priority 2000, published 2005).
“And” between values parts separate entries of the source, which are not always exact repeats. Equal values may be shown once. “Also recorded” adds a separate entry of the source.

How the values were obtained:
[1] = test system: RTV-1033 patient virus (RT V106A, V189L, F227L); assay: Phenotypic susceptibility assay, RTV-1033 (patient 98-1033); format: cell-based, HIV-1
Method: (§1) Transfections were performed using a calcium-phosphate precipitation procedure. […] Cell lysates were assayed for luciferase activity (FIG. 3). […] The drug inhibition curves are shown in (FIG. 3).

[2] = test system: HIV-1 reverse transcriptase P225H (P225H-RTV); assay: Phenotypic susceptibility assay, site directed mutant P225H-RTV; format: cell-based; conditions: P225H alone versus wild type control RTV
Method: as §1
Resistance test vectors were constructed containing the P225H mutation alone and in combination with other known drug resistance mutations (K103N, Y181C) known to modulate the HIV susceptibility to NNRTIs. […] (Sakar G and Sommar S S (1994) Biotechniques 8(4), 404-407). […] The P225H mutation was also introduced into a RTV containing additional mutations at K103N, Y181C or both (K103N+Y181C).

[3] = test system: HIV-1 reverse transcriptase G190S (G190S-RTV); assay: Phenotypic susceptibility assay, site directed mutant G190S-RTV; format: cell-based; conditions: for change in susceptibility: G190S-RTV versus wild type reference RTV; for fold change in susceptibility compared to wild type control RTV: G190S-RTV, >1 loss, <1 increased susceptibility
Method: (§2) Resistance tests were carried out with resistance test vectors using two host cell types. Resistance test vector viral particles were produced by a first host cell (the resistance test vector host cell) that was prepared by transfecting a packaging host cell with the resistance test vector and the packaging expression vector. The resistance test vector viral particles were then used to infect a second host cell (the target host cell) in which the expression of the indicator gene is measured.
(§3) The resistance test vectors containing a functional luciferase gene cassette were constructed and host cells were transfected with the resistance test vector DNA. The resistant test vectors contained patient-derived reverse transcriptase and protease sequences that were either susceptible or resistant to the antiretroviral agents, such as nucleoside reverse transcriptase inhibitors, non-nucleoside reverse transcriptase inhibitors and protease inhibitors. The resistance test vector viral particles produced by transfecting the resistance test vector DNA into host cells, either in the presence or absence of protease inhibitors, were used to infect target host cells grown either in the absence of NRTI or NNRTI or in the presence of increasing concentrations of the drug. The amount of luciferase activity produced in infected target host cells in the presence of drug was compared to the amount of luciferase produced in infected target host cells in the absence of drug. Drug resistance was measured as the amount of drug required to inhibit by 50% the luciferase activity detected in the absence of drug (inhibitory concentration 50%, IC50). The IC50 values were determined by plotting percent drug inhibition vs. log10 drug concentration.
(§4) Host cells were seeded in 10-cm-diameter dishes and were transfected several days after plating with resistance test vector plasmid DNA and the envelope expression vector. Transfections were performed using a calcium-phosphate precipitation procedure. The cell culture media containing the DNA precipitate was replaced with fresh medium, from one to 24 hours, after transfection. Cell culture media containing resistance test vector viral particles was harvested one to four days after transfection and was passed through a […] filter before being stored at −80° C. HIV capsid protein (p24) levels in the harvested cell culture media were determined by an EIA method as described by the manufacturer (SIAC; Frederick, Md.). Before infection, target cells (293 and 293/T) were plated in cell culture media. Control infections were performed using cell culture media from mock transfections (no DNA) or transfections containing the resistance test vector plasmid DNA without the envelope expression plasmid. One to three or more days after infection the media was removed and cell lysis buffer (Promega) was added to each well. […] The inhibitory effect of the drug was determined using the following equation: % luciferase inhibition=1-(RLUluc[drug]÷RLUluc)×100 where RLUluc [drug] is the relative light unit of luciferase activity in infected cells in the presence of drug and RLUluc is the Relative Light Unit of luciferase activity in infected cells in the absence of drug. IC50 values were obtained from the sigmoidal curves that were generated from the data by plotting the percent inhibition of luciferase activity vs. the log10 drug concentration. […]

[4] = test system: HIV-1 reverse transcriptase P236L plus K103N, Y181C or both; assay: Phenotypic susceptibility assay, P236L with K103N, Y181C or K103N+Y181C; format: cell-based; conditions: P236L added to K103N, Y181C or K103N+Y181C versus corresponding RTV lacking P236L
Method: as §1
Resistance test vectors were constructed containing the P236L mutation alone and in combination with other known drug resistance mutations (K103N, Y181C) that are known to modulate the susceptibility of HIV-1 to NNRTIs. […] The P236L mutation was also introduced into a RTV containing mutations at K103N, Y181C or both (K103N+Y181C).

[5] = test system: HIV-1 reverse transcriptase L100I (L100I-RTV); assay: Phenotypic susceptibility assay, site directed mutant L100I-RTV; format: cell-based; conditions: >1 loss of susceptibility
Method: as §2
as §3, with “The amount of luciferase activity produced in infected target host cells in the presence of drug was compared to the amount of luciferase produced in infected target host cells in the absence of drug. Drug resistance was measured as the amount of drug required to inhibit by 50% the luciferase activity detected in the absence of drug (inhibitory concentration 50%, IC50).” left out
(§5) Host cells were seeded in 10-cm-diameter dishes and were transfected several days after plating with resistance test vector plasmid DNA and the envelope expression vector. […] HIV capsid protein (p24) levels in the harvested cell culture media were determined by an EIA method as described by the manufacturer (SIAC; Frederick, Md.). […] The inhibitory effect of the drug was determined using the following equation: % luciferase inhibition=1-(RLUluc[drug]÷RLUluc)×100 where RLUluc [drug] is the relative light unit of luciferase activity in infected cells in the presence of drug and RLUluc is the Relative Light Unit of luciferase activity in infected cells in the absence of drug. […]

[6] = test system: T66I integrase site-directed mutant; assay: Phenotypic susceptibility assay, integrase T66I mutated resistance test vector; format: cell-based, HIV; conditions: {}
Method: as §1
A resistance test vector containing the threonine to isoleucine mutation at position 66 of the integrase protein (T66I) was constructed and tested using the phenotypic assay described earlier.

[7] = test system: HIV-1 reverse transcriptase V106A + V189L (V106A-V189L-RTV); assay: Phenotypic susceptibility assay, site directed mutant V106A-V189L-RTV; format: cell-based; conditions: >1 loss of susceptibility
Method: as §2
as §3, with “The amount of luciferase activity produced in infected target host cells in the presence of drug was compared to the amount of luciferase produced in infected target host cells in the absence of drug. Drug resistance was measured as the amount of drug required to inhibit by 50% the luciferase activity detected in the absence of drug (inhibitory concentration 50%, IC50).” left out
as §5

[8] = test system: HIV-1 reverse transcriptase K101E (K101E-RTV); assay: Phenotypic susceptibility assay, site directed mutant K101E-RTV; format: cell-based
Method: as §2, §3, §4

[9] = test system: HIV-1 reverse transcriptase K101E + G190S (K101E-G190S-RTV); assay: Phenotypic susceptibility assay, site directed mutant K101E-G190S-RTV; format: cell-based
Method: as §2, §3
Host cells were seeded in 10-cm-diameter dishes and were transfected several days after plating with resistance test vector plasmid DNA and the envelope expression vector. Transfections were performed using a calcium-phosphate precipitation procedure. The cell culture media containing the DNA precipitate was replaced with fresh medium, from one to 24 hours, after transfection. Cell culture media containing resistance test vector viral particles was harvested one to four days after transfection and was passed through a […] filter before being stored at −80° C. HIV capsid protein (p24) levels in the harvested cell culture media were determined by an EIA method as described by the manufacturer (SIAC; Frederick, Md.). Before infection, target cells (293 and 293/T) were plated in cell culture media. Control infections were performed using cell culture media from mock transfections (no DNA) or transfections containing the resistance test vector plasmid DNA without the envelope expression plasmid. One to three or more days after infection the media was removed and cell lysis buffer (Promega) was added to each well. […] The inhibitory effect of the drug was determined using the following equation: % luciferase inhibition=1-(RLUluc[drug]÷RLUluc)×100 where RLUluc [drug] is the relative light unit of luciferase activity in infected cells in the presence of drug and RLUluc is the Relative Light Unit of luciferase activity in infected cells in the absence of drug. IC50 values were obtained from the sigmoidal curves that were generated from the data by plotting the percent inhibition of luciferase activity vs. the log10 drug concentration.
Mutations may be incorporated alone and/or in combination with other known drug resistance mutations that are thought to modulate the susceptibility of HIV to a certain drug or class of drugs. Mutations are introduced into the resistance test vector through any of the widely known methods for site-directed mutagenesis. In one embodiment of this invention the mega-primer PCR method for site-directed mutagenesis is used.

[10] = test system: HIV-1 reverse transcriptase E138A (E138A-RTV); assay: Phenotypic susceptibility assay, site directed mutant E138A-RTV; format: cell-based; conditions: >1 loss of susceptibility
Method: as §2
as §3, with “The amount of luciferase activity produced in infected target host cells in the presence of drug was compared to the amount of luciferase produced in infected target host cells in the absence of drug. Drug resistance was measured as the amount of drug required to inhibit by 50% the luciferase activity detected in the absence of drug (inhibitory concentration 50%, IC50).” left out
as §5

[11] = test system: RTV-B clone 1 (RT A98G, G190S); assay: Phenotypic susceptibility assay, RTV-B clone 1 (patient B); format: cell-based, HIV-1; conditions: >1 loss, <1 increased susceptibility
Method: as §2
as §3, with “The amount of luciferase activity produced in infected target host cells in the presence of drug was compared to the amount of luciferase produced in infected target host cells in the absence of drug. Drug resistance was measured as the amount of drug required to inhibit by 50% the luciferase activity detected in the absence of drug (inhibitory concentration 50%, IC50).” left out
as §5

[12] = test system: HIV-1 reverse transcriptase Y181C + F227L (Y181C-F227L-RTV); assay: Phenotypic susceptibility assay, site directed mutant Y181C-F227L-RTV; format: cell-based; conditions: >1 loss, <1 increased susceptibility
Method: as §2
as §3, with “The amount of luciferase activity produced in infected target host cells in the presence of drug was compared to the amount of luciferase produced in infected target host cells in the absence of drug. Drug resistance was measured as the amount of drug required to inhibit by 50% the luciferase activity detected in the absence of drug (inhibitory concentration 50%, IC50).” left out
as §5

[13] = test system: HIV-1 reverse transcriptase A98G + G190S (A98G-G190S-RTV); assay: Phenotypic susceptibility assay, site directed mutant A98G-G190S-RTV; format: cell-based; conditions: >1 loss, <1 increased susceptibility
Method: as §2
as §3, with “The amount of luciferase activity produced in infected target host cells in the presence of drug was compared to the amount of luciferase produced in infected target host cells in the absence of drug. Drug resistance was measured as the amount of drug required to inhibit by 50% the luciferase activity detected in the absence of drug (inhibitory concentration 50%, IC50).” left out
as §5

[14] = test system: HIV-1 reverse transcriptase Y188L (Y188L-RTV); assay: Phenotypic susceptibility assay, site directed mutant Y188L-RTV; format: cell-based; conditions: >1 loss of susceptibility
Method: as §2
as §3, with “The amount of luciferase activity produced in infected target host cells in the presence of drug was compared to the amount of luciferase produced in infected target host cells in the absence of drug. Drug resistance was measured as the amount of drug required to inhibit by 50% the luciferase activity detected in the absence of drug (inhibitory concentration 50%, IC50).” left out
as §5

[15] = test system: HIV-1 reverse transcriptase K101E + G190A (K101E-G190A-RTV); assay: Phenotypic susceptibility assay, site directed mutant K101E-G190A-RTV; format: cell-based; conditions: >1 loss of susceptibility
Method: as §2
as §3, with “The amount of luciferase activity produced in infected target host cells in the presence of drug was compared to the amount of luciferase produced in infected target host cells in the absence of drug. Drug resistance was measured as the amount of drug required to inhibit by 50% the luciferase activity detected in the absence of drug (inhibitory concentration 50%, IC50).” left out
as §5

[16] = K101E-RTV, >1 loss of susceptibility
[17] = second pair of values printed in the K101E-RTV sentence of b280
[18] = >1 loss, <1 increased susceptibility

SMILES	decrease in susceptibility [1]	change in susceptibility [2]	change in susceptibility [3]	fold change in susceptibility compared to wild type control RTV [3]	change in susceptibility [4]	fold change in susceptibility compared to wild type control RTV [5]	increase in susceptibility compared to wild type control RTV [6]	fold change in susceptibility compared to wild type control RTV [7]	fold change in susceptibility compared to wild type control RTV [8, 16]	fold change in susceptibility compared to wild type control RTV [8, 17]	fold change in susceptibility compared to wild type control RTV ([9]; >1 loss of susceptibility)	fold change in susceptibility compared to wild type control RTV [9, 18]	fold change in susceptibility compared to wild type control RTV [10]	fold change in susceptibility [11]	fold change in susceptibility compared to wild type control RTV [12]	fold change in susceptibility compared to wild type control RTV [13]	fold change in susceptibility compared to wild type control RTV [14]	fold change in susceptibility compared to wild type control RTV [15]
Cc1ccnc2c1NC(=O)c1cccnc1N2C1CC1 [nevirapine]	greater than 800 fold	No significant change; also recorded: little or no change	markedly less susceptible; also recorded: decrease; also recorded: greatly reduce susceptibility	75 fold	did not significantly alter; also recorded: little or no additional reduction; also recorded: no effect	3 fold	8 to 10 fold	50 fold	12 fold	55 fold	greater than 800 fold	75 fold	1.3 fold	640 fold	285 fold	greater than 800 fold	greater than 800 fold	greater than 800 fold
CC(C)Nc1cccnc1N1CCN(C(=O)c2cc3cc(NS(C)(=O)=O)ccc3[nH]2)CC1 [delavirdine]	30 fold	more susceptible; also recorded: increase; also recorded: increases susceptibility	slightly more susceptible; also recorded: increase; also recorded: slightly increase susceptibility	0.5 fold	less susceptible (more resistant); also recorded: additional reduction; also recorded: severe resistance	30 fold	8 to 10 fold	3 fold	5 fold	–	1.4 fold	0.5 fold	1.6 fold	0.55 fold	0.89 fold	0.8 fold	9 fold	2 fold
O=C1Nc2ccc(Cl)cc2[C@@](C#CC2CC2)(C(F)(F)F)O1 [efavirenz]	200 fold	little or no change	–	8 fold	restores a significant portion of the loss of susceptibility	10 fold	8 to 10 fold	1 fold	5 fold	30 fold	greater than 250 fold	7.6 fold	1.4 fold	250 fold	0.99 fold	greater than 250 fold	109 fold and 110 fold	120 fold
